# How the values were obtained:
# Assay in all cases: biochemical
# [1] = target: T1, wild-type HCV NS3/4A protease (GT1a) (Hepatitis C virus genotype 1a, UniProt P27958, C1185S); assay type: biochemical
# T1 construct: His-tag (cleaved yes); made in house; host or cells: Escherichia coli BL21(DE3), PET28a vector
# Summary of the method: (§1)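 Inhibitors pre-incubated 1 h at room temperature with 2 nM NS3/4A protease (GT1a C159S or D168A) in 50 mM Tris, 5% glycerol, 10 mM DTT, 0.6 mM LDAO, 4% DMSO, pH 7.5. Km from global Michaelis-Menten fit of inner-filter-corrected initial velocities; three independent data sets per inhibitor and construct.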
# [2] = target: T2, HCV NS3/4A protease D168A variant (Hepatitis C virus genotype 1a, UniProt P27958, C1185S/D1194A); assay type: biochemical
# T2 construct: His-tag (cleaved yes); made in house; host or cells: Escherichia coli BL21(DE3), PET28a vector
# T2 sequence (P27958 1027-1208 C1185S/D1194A): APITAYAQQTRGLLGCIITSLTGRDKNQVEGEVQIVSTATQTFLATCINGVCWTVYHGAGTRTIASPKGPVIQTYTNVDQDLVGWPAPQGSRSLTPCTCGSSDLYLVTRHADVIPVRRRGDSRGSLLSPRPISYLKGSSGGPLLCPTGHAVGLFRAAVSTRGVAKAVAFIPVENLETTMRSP
# Summary of the method: as §1
# [3] = target: HCV NS3/4A protease GT3 (Hepatitis C virus genotype 3a, UniProt Q81495)
# Chain of HCV NS3/4A protease GT3 (Q81495 1033-1214): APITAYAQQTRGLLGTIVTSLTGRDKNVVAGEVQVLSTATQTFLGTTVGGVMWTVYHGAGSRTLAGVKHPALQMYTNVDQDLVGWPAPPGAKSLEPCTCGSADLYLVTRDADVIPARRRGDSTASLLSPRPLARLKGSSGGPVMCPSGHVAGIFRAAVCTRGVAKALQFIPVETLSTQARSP
# Chain of HCV NS3/4A protease GT3 (Q81495 1664-1717): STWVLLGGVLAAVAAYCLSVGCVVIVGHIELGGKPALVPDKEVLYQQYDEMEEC
# T1 sequence (P27958 1027-1208 C1185S): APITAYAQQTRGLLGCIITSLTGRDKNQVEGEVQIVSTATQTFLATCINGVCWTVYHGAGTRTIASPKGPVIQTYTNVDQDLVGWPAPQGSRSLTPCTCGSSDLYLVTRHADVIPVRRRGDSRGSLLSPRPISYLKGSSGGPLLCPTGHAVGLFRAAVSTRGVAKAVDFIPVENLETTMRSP
Structure (SMILES),Ki [1],Ki [2],Ki [3]
"COc1ccc2nc(C(F)(F)F)c(O[C@@H]3C[C@H]4C(=O)N[C@]5(C(=O)NS(=O)(=O)C6(C)CC6)C[C@H]5/C=C\CCCCC[C@H](NC(=O)OC5(C(F)(F)F)CCC5)C(=O)N4C3)nc2c1 [NR02-59, 1-(Trifluoromethyl)cyclobutyl ((2R,6S,13aS,14aR,16aS,Z)-2-((7-methoxy-3-(trifluoromethyl)quinoxalin-2-yl)oxy)-14a-(((1-methylcyclopropyl)sulfonyl)carbamoyl)-5,16-dioxo-1,2,3,5,6,7,8,9,10,11,13a,14,14a,15,16,16a-hexadecahydrocyclopropa[e]pyrrolo[1,2-a][1,4]diazacyclopentadecin-6-yl)carbamate]",2 ± 0.2 nM,12.2 ± 1.1 nM,133 ± 25 nM
"COc1ccc2nc(C(F)(F)F)c(O[C@@H]3C[C@H]4C(=O)N[C@]5(C(=O)NS(=O)(=O)C6(C)CC6)C[C@H]5/C=C\CCCCC[C@H](NC(=O)OC5(C(F)(F)F)CCCC5)C(=O)N4C3)nc2c1 [NR04-01, 1-(Trifluoromethyl)cyclopentyl ((2R,6S,13aS,14aR,16aS,Z)-2-((7-methoxy-3-(trifluoromethyl)quinoxalin-2-yl)oxy)-14a-(((1-methylcyclopropyl)sulfonyl)carbamoyl)-5,16-dioxo-1,2,3,5,6,7,8,9,10,11,13a,14,14a,15,16,16a-hexadecahydrocyclopropa[e]pyrrolo[1,2-a][1,4]diazacyclopentadecin-6-yl)carbamate]",5.66 ± 0.5 nM,20.4 ± 0.9 nM,414 ± 23 nM
"COc1ccc2nc(C(F)(F)F)c(O[C@@H]3C[C@H]4C(=O)N[C@]5(C(=O)NS(=O)(=O)C6(C)CC6)C[C@H]5/C=C\CCCCC[C@H](NC(=O)O[C@@H](C)C(C)C)C(=O)N4C3)nc2c1 [NR01-101, (S)-3-Methylbutan-2-yl ((2R,6S,13aS,14aR,16aS,Z)-2-((7-methoxy-3-(trifluoromethyl)quinoxalin-2-yl)oxy)-14a-(((1-methylcyclopropyl)sulfonyl)carbamoyl)-5,16-dioxo-1,2,3,5,6,7,8,9,10,11,13a,14,14a,15,16,16a-hexadecahydrocyclopropa [e]pyrrolo[1,2-a][1,4]diazacyclopentadecin-6-yl)carbamate]",6.1 ± 0.57 nM,26.2 ± 2.3 nM,447 ± 25 nM
"COc1ccc2nc(C(F)(F)F)c(O[C@@H]3C[C@H]4C(=O)N[C@]5(C(=O)NS(=O)(=O)C6(C)CC6)C[C@H]5/C=C\CCCCC[C@H](NC(=O)O[C@@H](C)C(F)(F)F)C(=O)N4C3)nc2c1 [NR02-32, (S)-1,1,1-Trifluoropropan-2-yl ((2R,6S,13aS,14aR,16aS,Z)-2-((7-methoxy-3-(trifluoromethyl)quinoxalin-2-yl)oxy)-14a-(((1-methylcyclopropyl)sulfonyl)carbamoyl)-5,16-dioxo-1,2,3,5,6,7,8,9,10,11,13a,14,14a,15,16,16a-hexadecahydrocyclopropa[e]pyrrolo[1,2-a][1,4]diazacyclopentadecin-6-yl)carbamate]",7.69 ± 0.89 nM,44.6 ± 7.3 nM,580 ± 50 nM
"COc1ccc2nc(C(F)(F)F)c(O[C@@H]3C[C@H]4C(=O)N[C@]5(C(=O)NS(=O)(=O)C6(C)CC6)C[C@H]5/C=C\CCCCC[C@H](NC(=O)OC5(C)CCC5)C(=O)N4C3)nc2c1 [NR02-62, 1-Methylcyclobutyl ((2R,6S,13aS,14aR,16aS,Z)-2-((7-methoxy-3-(trifluoromethyl)quinoxalin-2-yl)oxy)-14a-(((1-methylcyclopropyl)sulfonyl)carbamoyl)-5,16-dioxo-1,2,3,5,6,7,8,9,10,11,13a,14,14a,15,16,16a-hexadecahydrocyclopropa[e]pyrrolo[1,2-a][1,4]diazacyclopentadecin-6-yl)carbamate]",4.86 ± 0.39 nM,20.7 ± 0.7 nM,283 ± 21 nM
"COc1ccc2nc(C(F)(F)F)c(O[C@@H]3C[C@H]4C(=O)N[C@]5(C(=O)NS(=O)(=O)C6(C)CC6)C[C@H]5/C=C\CCCCC[C@H](NC(=O)O[C@@H](C)C5CC5)C(=O)N4C3)nc2c1 [NR02-33, (S)-1-Cyclopropylethyl ((2R,6S,13aS,14aR,16aS,Z)-2-((7-methoxy-3-(trifluoromethyl)quinoxalin-2-yl)oxy)-14a-(((1-methylcyclopropyl)sulfonyl)carbamoyl)-5,16-dioxo-1,2,3,5,6,7,8,9,10,11,13a,14,14a,15,16,16a-hexadecahydrocyclopropa[e]pyrrolo[1,2-a][1,4]diazacyclopentadecin-6-yl)carbamate]",10.4 ± 0.94 nM,54.4 ± 3.7 nM,412 ± 21 nM
"COc1ccc2nc(C)c(O[C@@H]3C[C@H]4C(=O)N[C@]5(C(=O)NS(=O)(=O)C6(C)CC6)C[C@H]5/C=C\CCCCC[C@H](NC(=O)OCC5(C)CC5(F)F)C(=O)N4C3)nc2c1 (stereo partly drawn) [NR02-55, (2,2-Difluoro-1-methylcyclopropyl)methyl ((2R,6S,13aS,14aR,16aS,Z)-2-((7-methoxy-3-methylquinoxalin-2-yl)oxy)-14a-(((1-methylcyclopropyl)sulfonyl)carbamoyl)-5,16-dioxo-1,2,3,5,6,7,8,9,10,11,13a,14,14a,15,16,16a-hexadecahydrocyclopropa[e]pyrrolo[1,2-a][1,4]diazacyclopentadecin-6-yl)carbamate]",3.1 ± 0.3 nM,4.7 ± 0.5 nM,100 ± 12 nM
"COc1ccc2nc(C)c(O[C@@H]3C[C@H]4C(=O)N[C@]5(C(=O)NS(=O)(=O)C6(C)CC6)C[C@H]5/C=C\CCCCC[C@H](NC(=O)O[C@H](C)C(F)(F)F)C(=O)N4C3)nc2c1 [NR01-145, (R)-1,1,1-Trifluoropropan-2-yl ((2R,6S,13aS,14aR,16aS,Z)-2-((7-methoxy-3-methylquinoxalin-2-yl)oxy)-14a-(((1-methylcyclopropyl)sulfonyl)carbamoyl)-5,16-dioxo-1,2,3,5,6,7,8,9,10,11,13a,14,14a,15,16,16a-hexadecahydrocyclopropa[e]pyrrolo[1,2-a][1,4]diazacyclopentadecin-6-yl)carbamate]",1.1 ± 0.1 nM,8 ± 1 nM,122 ± 11 nM
"COc1ccc2nc(C)c(O[C@@H]3C[C@H]4C(=O)N[C@]5(C(=O)NS(=O)(=O)C6(C)CC6)C[C@H]5/C=C\CCCCC[C@H](NC(=O)O[C@@H]5CCC[C@H]5F)C(=O)N4C3)nc2c1 [NR02-08, (1R,2R)-2-Fluorocyclopentyl ((2R,6S,13aS,14aR,16aS,Z)-2-((7-methoxy-3-methylquinoxalin-2-yl)oxy)-14a-(((1-methylcyclopropyl)sulfonyl)carbamoyl)-5,16-dioxo-1,2,3,5,6,7,8,9,10,11,13a,14,14a,15,16,16a-hexadecahydrocyclopropa[e]pyrrolo [1,2-a][1,4]diazacyclopentadecin-6-yl)carbamate]",2.3 ± 0.2 nM,16 ± 1 nM,216 ± 32 nM
"COc1ccc2nc(C)c(O[C@@H]3C[C@H]4C(=O)N[C@]5(C(=O)NS(=O)(=O)C6(C)CC6)C[C@H]5/C=C\CCCCC[C@H](NC(=O)OC5(C(F)(F)F)CCCC5)C(=O)N4C3)nc2c1 [NR02-60, 1-(Trifluoromethyl)cyclopentyl ((2R,6S,13aS,14aR,16aS,Z)-2-((7-methoxy-3-methylquinoxalin-2-yl)oxy)-14a-(((1-methylcyclopropyl)sulfonyl)carbamoyl)-5,16-dioxo-1,2,3,5,6,7,8,9,10,11,13a,14,14a,15,16,16a-hexadecahydrocyclopropa[e]pyrrolo [1,2-a][1,4]diazacyclopentadecin-6-yl)carbamate]",1.3 ± 0.2 nM,8.1 ± 1.5 nM,104 ± 7 nM
"COc1ccc2nc(C(F)(F)F)c(O[C@@H]3C[C@H]4C(=O)N[C@]5(C(=O)NS(=O)(=O)C6(C)CC6)C[C@H]5/C=C\CCCCC[C@H](NC(=O)OC5(C)CCCC5)C(=O)N4C3)nc2c1 [NR02-15, 1-Methylcyclopentyl ((2R,6S,13aS,14aR,16aS,Z)-2-((7-methoxy-3-(trifluoromethyl)quinoxalin-2-yl)oxy)-14a-(((1-methylcyclopropyl)sulfonyl)carbamoyl)-5,16-dioxo-1,2,3,5,6,7,8,9,10,11,13a,14,14a,15,16,16a-hexadecahydrocyclopropa[e]pyrrolo[1,2-a][1,4]diazacyclopentadecin-6-yl)carbamate]",0.9 ± 0.1 nM,11.8 ± 1.8 nM,161 ± 13 nM
"COc1ccc2nc(C(F)(F)F)c(O[C@@H]3C[C@H]4C(=O)N[C@]5(C(=O)NS(=O)(=O)C6(C)CC6)C[C@H]5/C=C\CCCCC[C@H](NC(=O)OC5CC5)C(=O)N4C3)nc2c1 [NR02-46, Cyclopropyl ((2R,6S,13aS,14aR,16aS,Z)-2-((7-methoxy-3-(trifluoromethyl)quinoxalin-2-yl)oxy)-14a-(((1-methylcyclopropyl)sulfonyl)carbamoyl)-5,16-dioxo-1,2,3,5,6,7,8,9,10,11,13a,14,14a,15,16,16a-hexadecahydrocyclopropa[e]pyrrolo[1,2-a][1,4]diazacyclopentadecin-6-yl)carbamate]",13.6 ± 0.9 nM,67.5 ± 3.9 nM,522 ± 25 nM
"COc1ccc2nc(C)c(O[C@@H]3C[C@H]4C(=O)N[C@]5(C(=O)NS(=O)(=O)C6(C)CC6)C[C@H]5/C=C\CCCCC[C@H](NC(=O)OC5(C(F)(F)F)CCC5)C(=O)N4C3)nc2c1 [NR02-58, 1-(Trifluoromethyl)cyclobutyl ((2R,6S,13aS,14aR,16aS,Z)-2-((7-methoxy-3-methylquinoxalin-2-yl)oxy)-14a-(((1-methylcyclopropyl)sulfonyl)carbamoyl)-5,16-dioxo-1,2,3,5,6,7,8,9,10,11,13a,14,14a,15,16,16a-hexadecahydrocyclopropa[e]pyrrolo[1,2-a][1,4]diazacyclopentadecin-6-yl)carbamate]",1.5 ± 0.2 nM,11.3 ± 2 nM,96 ± 17 nM

# Reference: US12441762B2, “Hepatitis c virus NS3/4A protease inhibitors” (priority 2019, dated 2025)
